PubChem BioAssay (NCI)
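Method: 48-hour compound exposure of cells in 96-well plates, five concentrations, linear interpolation of endpoints. The concentration for 50% growth inhibition is given as GI50. TGI marks complete inhibition of growth.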

How the values were obtained:
Assay in all cases: NCI-60 cell line screen, 48 h
[1] = test system: TK-10 renal
[2] = test system: IGROV1 ovarian
[3] = test system: ACHN renal
[4] = test system: UO-31 renal
[5] = test system: 786-0 renal
[6] = test system: HCC-2998 colon
[7] = test system: MOLT-4 leukemia
[8] = test system: SN12C renal
[9] = test system: OVCAR-3 ovarian
[10] = test system: HOP-92 NSCLC

Compound | TGI [1] | TGI [2] | TGI [3] | TGI [4] | TGI [5] | TGI [6] | TGI [7] | TGI [8] | TGI [9] | TGI [10] | GI50 [10]
Cc1cc(C)nc(NS(=O)(=O)c2ccc(NC(=O)c3cccc4c(NNc5ccc(S(=O)(=O)N=C(N)N)cc5)c5ccccc5nc34)cc2)n1 | > 50 µM | > 50 µM | > 50 µM | > 50 µM | > 50 µM | > 50 µM | > 50 µM | > 50 µM | > 50 µM | > 50 µM | 
Cc1cc(O)c(-c2cc(O)c(C)cc2O)cc1O | 16 µM | 25.9 µM | 13.7 µM | 5.4 µM | 8.55 µM | 27.3 µM | 5.21 µM | 13.6 µM | 5.12 µM | 6.22 µM | 
COc1ccc(Oc2cnn(C(Br)(Br)C(C)=O)c(=O)c2Br)cc1 | 26.3 µM | 42.8 µM | 26.4 µM | 26.8 µM | 27.4 µM | 30.6 µM | 3.56 µM | 28.5 µM | 13.6 µM | 29.4 µM | 
O=S1(=O)c2cnccc2NC(=NCc2ccccc2)N1c1ccccc1 | > 100 µM | > 100 µM | > 100 µM | > 100 µM | > 100 µM | > 100 µM | > 100 µM | > 100 µM | > 100 µM | > 100 µM | 
O=[N+]([O-])c1cc(Cl)ccc1Sc1ccccc1 | > 100 µM | > 100 µM | > 100 µM | > 100 µM | > 100 µM | > 100 µM | > 100 µM | > 100 µM | > 100 µM | > 100 µM | 
CC1(C)CC(C#Cc2ccccc2)CC(C)(C)N1O | 40.5 µM | > 100 µM | > 100 µM | 32.4 µM | 76.7 µM | 32.2 µM | > 100 µM | 28.8 µM | 37.4 µM | 45 µM | 
CN1N=C(c2ccncc2)OC1c1ccccc1F (stereo unspecified) | > 100 µM | > 100 µM | > 100 µM | > 100 µM | > 100 µM | > 100 µM | > 100 µM | > 100 µM | > 100 µM | > 100 µM | 
O=C(O)CN(CC(=O)O)C(C(=O)O)c1ccccc1 (stereo unspecified) | > 100 µM | > 100 µM | > 100 µM | > 100 µM | > 100 µM | > 100 µM | > 100 µM | > 100 µM | > 100 µM | > 100 µM | 
CCOC(=O)C1CCC(=O)N1C(=O)c1ccccc1Cl (stereo unspecified) | > 100 µM | > 100 µM | > 100 µM | > 100 µM | > 100 µM | > 100 µM | > 100 µM | > 100 µM | > 100 µM | > 100 µM | 
Cc1cc(NS(=O)(=O)c2ccc(NC(NC(=O)C(C(F)(F)F)C(F)(F)F)(C(F)(F)F)C(F)(F)F)cc2)no1 | > 100 µM | > 100 µM | > 100 µM | > 100 µM | > 100 µM | > 100 µM | > 100 µM | > 100 µM | > 100 µM | > 100 µM | 
N#Cc1c(-c2ccccc2)c2c([nH]c1=O)-c1cc([N+](=O)[O-])ccc1CCC2 | > 100 µM | > 100 µM | 83.6 µM | > 100 µM | > 100 µM | 48.2 µM | > 100 µM | > 100 µM | 45 µM | 58.9 µM | 
O=C(OCC1OC(n2nc(Cn3nnc(-c4cccnc4)n3)n(-c3cccc4ccccc34)c2=S)C(OC(=O)c2ccccc2)C1OC(=O)c1ccccc1)c1ccccc1 (stereo unspecified) | > 100 µM | > 100 µM | > 100 µM | > 100 µM | > 100 µM | > 100 µM | > 100 µM | > 100 µM | > 100 µM | > 100 µM | 
c1ccc([P+](CCCCCCCC[P+](c2ccccc2)(c2ccccc2)c2ccccc2)(c2ccccc2)c2ccccc2)cc1 | > 73.7 µM | > 23.9 µM | > 100 µM | > 100 µM | > 100 µM | > 100 µM | > 86 µM | > 100 µM | > 100 µM | 43.9 µM | 
CN(C)c1ccc(Cc2cc3c(O)ccc(O)c3cc(Cc3ccc(N(C)C)cc3)c2=O)cc1 | 33.6 µM | 40.2 µM | 25.3 µM | 27.7 µM | 32.1 µM | 64 µM | 8.81 µM | > 73.2 µM | 54.2 µM | 14.5 µM | 
O=C(CC(=O)Nc1ccccc1)NNC(c1cc(N=Nc2ccc(Br)cc2)ccc1O)P(O)O (stereo unspecified) | > 10 µM | > 10 µM | > 10 µM | > 10 µM | > 10 µM | > 10 µM | 4.15 µM | > 10 µM | > 10 µM | > 10 µM | 
CN(C)c1cccc2c1C(=O)C=CC21c2ccc(N(C)C)c3c(N(C)C)ccc(c23)C(c2ccccc2)C1c1ccccc1 (stereo unspecified) | 25.5 µM | 29.3 µM | 26.6 µM | 12.2 µM | 22.3 µM | 45.6 µM | 6.82 µM | 32.7 µM | 31.2 µM | 28.6 µM | 
COc1nc2c(N3CCCC3)nc(N3CCNCC3)nc2nc1NCc1ccccc1 | 5.78 µM | 8.8 µM | 7.01 µM | 2.85 µM | 2.66 µM | 2.79 µM | 4.65 µM | 4.95 µM | 2.42 µM | 5.2 µM | 
O=C(CC(C(=O)c1ccco1)c1ccco1)c1ccco1 (stereo unspecified) | > 100 µM | > 100 µM | > 100 µM | 92.5 µM | > 100 µM | > 100 µM | > 100 µM | > 100 µM | > 100 µM | > 100 µM | 
CCNc1ncnc2sc(SCc3ccccc3)nc12 | > 100 µM | > 100 µM | > 100 µM | > 100 µM | > 100 µM | > 100 µM | > 100 µM | > 100 µM | > 100 µM | 81 µM | 
CC(C)/C(Cl)=N/OC(=O)Nc1ccc(OC(F)(F)F)cc1 | 29.3 µM | 30.5 µM | 25.1 µM | 23.8 µM | 19.6 µM | 30.5 µM | > 77.9 µM | 31.7 µM | 32.6 µM | 3.71 µM | 
Nc1ccc(-c2nn3c(COc4ccc(Cl)cc4)nnc3s2)cc1 | > 100 µM | > 100 µM | > 100 µM | > 100 µM | > 100 µM | > 100 µM | > 100 µM | > 100 µM | > 100 µM | > 100 µM | 98 µM
CN(C)CCCNC(=O)c1c(O)c2ccccc2n(C)c1=O | > 100 µM | > 100 µM | > 100 µM | > 100 µM | > 100 µM | > 100 µM | > 100 µM | > 100 µM | > 100 µM | 80.7 µM | 
COc1ccc(OC)c2sc(N3C(=O)/C(=C/c4cccc([N+](=O)[O-])c4)N=C3c3ccccc3)nc12 | > 100 µM | > 100 µM | > 100 µM | > 100 µM | > 100 µM | > 100 µM | 47.4 µM | > 100 µM | > 100 µM | > 100 µM | 
C[C@H]1[C@H](C)CC[C@]2(C(=O)OC3OC(CO)C(O)C(O)C3O)CC[C@]3(C)C(=CC[C@@H]4[C@@]5(C)C[C@H]6OC(=O)c7cc(O)c(O)c(O)c7-c7c(cc(O)c(O)c7O)C(=O)O[C@@H]6C(CO)(CO)[C@@H]5CC[C@]43C)[C@H]12 (stereo partly specified) | > 100 µM | > 100 µM | > 100 µM | > 100 µM | > 52.2 µM | > 100 µM | > 74.4 µM | > 100 µM | > 71.5 µM | > 100 µM | 
COC(=O)[C@H](Cc1ccccc1)NC(=O)N(CCC#N)CCN(C(=O)N[C@@H](Cc1ccccc1)C(=O)OC)c1ccccc1 | 41.6 µM | 42.9 µM | 33.9 µM | 31.9 µM | 50.8 µM | > 100 µM | 41.3 µM | 89 µM | 43.4 µM | 39.4 µM | 
CC(C)[Si](OC/C(=C/COC(C)(C)C)[C@H]1CC=C(C(=O)c2ccccc2N2CN(C)C(=O)N(C)C2)C1)(C(C)C)C(C)C | 24.2 µM | 25.6 µM | 28.6 µM | 23.1 µM | 17.9 µM | 31 µM | 1.67 µM | 24.9 µM | 25 µM | 25.1 µM | 
C(=C\c1ccccc1)/COc1ccccc1C(N1CCOCC1)n1nc2ccccc2n1 (stereo unspecified) | 32.4 µM | 41.6 µM | 38.8 µM | 31.6 µM | 15.8 µM | 34.8 µM | 13.2 µM | 24.1 µM | 7.04 µM | 21.9 µM | 
CC1(C)N=C2C(=O)c3c([nH]c4ccccc34)[C@]3(C)CCC1CC23 (stereo partly specified) | > 6.25 µM | > 6.25 µM | > 6.25 µM | > 6.25 µM | > 6.25 µM | > 6.25 µM | > 6.25 µM | > 6.25 µM | > 6.25 µM | > 6.25 µM | 
COc1ccc2c(c1)c(=O)c1c(NCCNCCO)ccc3c(=O)n(CCN(C)C)c(=O)n2c31 | 4.53 µM | 1.46 µM | 1.49 µM | 1.61 µM | 0.892 µM | 0.234 µM | > 100 µM | 0.64 µM | 4.62 µM | 0.775 µM | 
